Laboratory results from patent publication EP4818176A1, “TETRACYCLIC DERIVATIVE INHIBITOR, AND PREPARATION METHOD AND USE THEREFOR” (Shanghai Hansoh Biomedical Co., Ltd., priority 2023, dated 2025).
Like-named read-outs stand apart in the source and are kept apart here.

Tests used:
[1] = target: T1, PRMT5/MEP50-MTA protein complex (Homo sapiens, UniProt O14744); assay: Thermal shift assay: thermal stability (melting temperature) of PRMT5/MEP50-MTA protein complex; type: binding; conditions: final compound concentration 8 µM; 2 µM PRMT5/MEP50, 2 µM MTA; Tm minus Tm of DMSO vehicle control
T1 construct: purchased Viva Biotech
Text: Test Example 1: Determination of the ability of the compounds of the present invention to improve the thermal stability (melting temperature) of the PRMT5/MEP50-MTA protein complex.
1 Experimental objective: The objective of this test example is to determine the ability of the compound to improve the thermal stability of the PRMT5/MEP50-MTA protein complex, resulting in an increase in the protein melting temperature. 2 Experimental instruments: Quantitative PCR instrument (Quantstudio6 Flex) was purchased from Life Technologies; pipettes were purchased from Eppendorf or Rainin. 3 Experimental reagents and consumables: PRMT5/MEP50 protein was prepared by Viva Biotech; HEPES was purchased from Thermo Fisher Scientific (Cat. No. 15630080); DTT was purchased from Sigma (Cat. No. 43816-10ml); sodium chloride was purchased from Invitrogen (Cat. No. AM9760G); Protein Thermal Shift™ Dye Kit was purchased from Thermo Fisher Scientific (Cat. No. 4461146); methylthioadenosine (MTA) was purchased from Sigma (Cat. No. D5011). 4 Experimental method: In this experiment, the thermal shift method was used to measure the change in the melting temperature (Tm) of the PRMT5/MEP50-MTA protein complex before and after compound binding, thereby characterising the ability of the compound to improve the thermal stability of the PRMT5/MEP50-MTA protein complex. A solution containing 50 mM HEPES, 10 mM DTT, 2 µM MTA, SYPRO Orange and 250 mM NaCl was prepared as the experimental buffer. Human PRMT5/MEP50 protein was added to a final concentration of 2 µM, and the mixture was incubated at room temperature for 30 minutes. The above reaction mixture was aliquoted into 8-strip PCR tubes at 19.5 µL per tube. Then 0.5 µL of test compound or DMSO was added to each tube, providing a total reaction volume of 20 µL and a final compound concentration of 8 µM. 2.5% DMSO was set as the vehicle control. After incubation at room temperature for 10 minutes, the PCR tubes were placed in a PCR instrument, and the melt curve function was selected to measure the melting temperature of the PRMT5/MEP50-MTA protein complex in different treatment groups (heated from 25°C to 95°C, 0.03°C/s). 5 Experimental data processing method: The experimental data files from the PCR instrument were imported into the thermal shift software to obtain the melting temperature (Tm) for each treatment group.

[2] = test system: MTAP Knockout HCT116 cells; assay: Cell proliferation inhibition (CellTiter-Glo), HCT116 MTAP knockout cells; type: cell-based; conditions: for Selectivity: HCT116 IC50 versus MTAP Knockout HCT116 IC50
Text: (§1) Test Example 2: Determination of the inhibitory effect of the compounds of the present invention on the proliferation activity of HCT116 and MTAP Knockout HCT116 cells.
(§2) 1 Experimental objective: The objective of this test example is to determine the inhibitory effect of the compound on the proliferation activity of HCT116 wild-type and HCT116 MTAP knockout cells. 2 Experimental instruments: Centrifuge (Eppendorf 5810R); microplate reader (BioTek Synergy H1 or PerkinElmer Envision); pipette (Eppendorf or Rainin). 3 Experimental reagents: HCT116 and MTAP Knockout HCT116 cells were purchased from Nanjing Cobioer; Cell Titer-Glo was purchased from Promega (Cat. No. G7573); McCoy'5A was purchased from Gibco (Cat. No. 12330031); FBS was purchased from Gibco (Cat. No. 10091148); PBS was purchased from Gibco (Cat. No. 10010023); trypsin was purchased from Gibco (Cat. No. 25200056); cell culture plates were purchased from Corning (Cat. No. 3610). 4 Experimental method: HCT116 and MTAP Knockout HCT116 cells were cultured in McCoy'5A medium containing 10% FBS until an appropriate cell density was reached. The cells were then collected and adjusted to a suitable concentration using complete medium. The cell suspension was seeded into a 96-well plate at 90 µL per well and allowed to adhere overnight in a 37°C, 5% CO2 incubator. Compound solutions of various concentrations were prepared using DMSO and culture medium, with a vehicle control set. The compound solutions were added to the 96-well plate at 10 µL per well, and the plate was incubated in a 37°C, 5% CO2 incubator for an additional 72-240 hours. After incubation, CellTiter-Glo solution was added, and the mixture was mixed uniformly by shaking, followed by incubation in the dark for 10 to 30 minutes. Luminescence was measured using a Synergy H1 or Envision microplate reader. 5 Experimental data processing method: The inhibition rate was calculated using the luminescence signal values, and the concentrations along with the inhibition rates were subjected to non-linear regression curve fitting using Graphpad Prism software to obtain the IC50 values.

HCT116 wild-type cells = assay: Cell proliferation inhibition (CellTiter-Glo), HCT116 wild-type cells; type: cell-based
Text: as §1, §2

[3] = Homo sapiens, HCT-116, MTAP Knockout HCT116 cells, proliferation inhibition, Cell Titer-Glo, read-out: MTAP Knockout HCT116 IC50
[4] = Homo sapiens, HCT-116, HCT116 wild-type cells, proliferation inhibition, Cell Titer-Glo, read-out: HCT116 IC50
[5] = Homo sapiens, HCT-116, read-out: MTAP Knockout HCT116 IC50
[6] = Homo sapiens, HCT-116, read-out: HCT116 IC50

T1 sequence (O14744 whole entry): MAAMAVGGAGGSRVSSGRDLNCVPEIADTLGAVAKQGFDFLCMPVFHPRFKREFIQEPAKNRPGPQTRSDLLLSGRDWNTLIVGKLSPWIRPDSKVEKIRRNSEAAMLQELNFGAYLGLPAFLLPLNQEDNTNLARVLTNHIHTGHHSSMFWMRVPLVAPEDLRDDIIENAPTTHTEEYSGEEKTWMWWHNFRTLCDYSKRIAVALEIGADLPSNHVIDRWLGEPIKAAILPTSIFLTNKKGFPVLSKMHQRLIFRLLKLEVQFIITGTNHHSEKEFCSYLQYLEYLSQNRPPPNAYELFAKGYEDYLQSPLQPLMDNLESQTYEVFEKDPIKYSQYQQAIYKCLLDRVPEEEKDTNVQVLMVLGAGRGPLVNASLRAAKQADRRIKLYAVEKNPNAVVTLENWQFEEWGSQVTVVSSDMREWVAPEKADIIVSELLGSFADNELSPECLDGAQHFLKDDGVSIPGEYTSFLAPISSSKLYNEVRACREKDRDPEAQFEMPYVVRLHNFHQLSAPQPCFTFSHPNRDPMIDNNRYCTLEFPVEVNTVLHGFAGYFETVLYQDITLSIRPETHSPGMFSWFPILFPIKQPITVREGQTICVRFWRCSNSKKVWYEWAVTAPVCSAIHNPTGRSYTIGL
T1 sequence (Q9BQA1 whole entry partner): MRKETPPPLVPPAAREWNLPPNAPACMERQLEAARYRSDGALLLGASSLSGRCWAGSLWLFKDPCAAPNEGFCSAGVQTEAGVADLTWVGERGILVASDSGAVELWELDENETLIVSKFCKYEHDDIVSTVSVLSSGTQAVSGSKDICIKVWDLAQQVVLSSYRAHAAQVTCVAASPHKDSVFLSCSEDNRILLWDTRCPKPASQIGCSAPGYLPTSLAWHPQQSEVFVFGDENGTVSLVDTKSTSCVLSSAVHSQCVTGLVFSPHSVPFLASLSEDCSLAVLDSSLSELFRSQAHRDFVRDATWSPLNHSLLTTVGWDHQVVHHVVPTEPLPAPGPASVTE

Compound | ΔTm at 8 µM [1] [°C] | Selectivity [2] | IC50 [2, 3] [nM] | IC50 (HCT116 wild-type cells; [4]) [nM] | IC50 [2, 5] [nM] | IC50 (HCT116 wild-type cells; [6]) [nM] | ΔTm (°C) [1] [°C] | IC50 ([2]; MTAP Knockout HCT116 cells, proliferation inhibition, Cell Titer-Glo, read-out: MTAP Knockout HCT116 IC50) [nM] | IC50 (HCT116 wild-type cells; HCT116 wild-type cells, proliferation inhibition, Cell Titer-Glo, read-out: HCT116 IC50) [nM]
Nc1nc2cc3c(cc2c2c1COC2)C(=O)N(Cc1ccc(C(F)(F)F)cn1)CCC/C=C\3 [Example 173, (Z)-4-Amino-12-((5-(trifluoromethyl)pyridin-2-yl)methyl)-1,3,9,10,11,12-hexahydro-13H-azo[3,4-g]furo[3,4-c]quinolin-13-one] | 11.6 | 80 | 3.5 | 279 |  |  |  |  | 
CC1CCN(Cc2ccc(C(F)(F)F)cn2)C(=O)c2cc3c(cc2CO1)nc(N)c1cncn13 (stereo not drawn) [Example 177, 4-Amino-9-methyl-12-((5-(trifluoromethyl)pyridin-2-yl)methyl)-9,10,11,12-tetrahydroimidazo[1,5-a][1,5]oxazolo[8,7-g]quinoxalin-13(7H)-one] | 11.2 | 84 |  |  | 18 | 1510 |  |  | 
CC1OCc2c1c(N)nc1cc3c(cc21)C(=O)N(Cc1ccc(C(F)(F)F)cn1)CCCOC3 (stereo not drawn) [Example 184, 4-Amino-3-methyl-12-((5-(trifluoromethyl)pyridin-2-yl)methyl)-3,7,9,10,11,12-hexahydrofuro[3,4-c][1,5]oxazolo [7,8-g]quinoxalin-13(1H)-one] | 11.1 | 108 |  |  | 21 | 2290 |  |  | 
Cn1ncc2c(N)nc3cc4c(cc3c21)C(=O)N(Cc1ccc(C(F)(F)F)cn1)CCCOC4 [Example 190, 4-Amino-1-methyl-12-((5-(trifluoromethyl)pyridin-2-yl)methyl)-1,7,9,10,11,12-hexahydro-13H-[1,5]oxazolo[7,8-g]pyrazolo[4,3-c]quinolin-13-one] | 12.2 | 123 |  |  | 6.2 | 763 |  |  | 
Nc1nc2cc3c(cc2n2cncc12)C(=O)N(Cc1ccc(S(F)(F)(F)(F)F)cc1)CCCOC3 [Example 214, 4-Amino-12-(4-(pentafluoro-λ^6-sulphanyl)benzyl)-9,10,11,12-tetrahydroimidazo[1,5-a][1,5]oxazonino[8,7-g]quinoxalin-13(7H)-one] | 12.3 | 20 | 5.3 | 106 |  |  |  |  | 
Cn1ncc2c(N)nc3cc4c(cc3c21)C(=O)N(C1COc2cc(C(F)(F)F)ccc21)CCCOC4 (stereo not drawn) [Example 270, 4-Amino-1-methyl-12-(6-(trifluoromethyl)-2,3-dihydrobenzofuran-3-yl)-1,7,9,10,11,12-hexahydro-13H-[1,5]oxazonino[7,8-g]pyrazolo[4,3-c]quinolin-13-one] | 10.8 | 147 |  |  | 17 | 2450 |  |  | 
Nc1nc2cc3c(cc2n2cncc12)C(=O)N(Cc1ccc(C(F)(F)F)nn1)CC/C=C\3 [Example 418, (Z)-4-Amino-12-(6-(trifluoromethyl)pyridazin-3-yl)methyl-9,10,11,12-tetrahydro-13H-azocino[4,3-g]imidazo[1,5-a]quinoxalin-13-one] | 11.5 | 54 |  |  | 20 | 1090 |  |  | 
Nc1nc2cc3c(cc2n2cncc12)C(=O)N(Cc1ccc(-c2c(F)cncc2F)cn1)CCC/C=C\3 [Example 419, (Z)-4-Amino-12-(3',5'-difluoro-[3,4'-bipyridin]-6-yl)methyl-9,10,11,12-tetrahydro-13H-azonino[4,3-g]imidazo[1,5-a]quinoxalin-13-one] | 12.7 | 14 | 3.6 | 51 |  |  |  |  | 
Cn1ncc2c(N)nc3cc4c(cc3c21)C(=O)N(Cc1ccc(-c2c(F)cccc2F)cn1)CCCOC4 [Example 427, 4-Amino-12-((5-(2,6-difluorophenyl)pyridin-2-yl)methyl)-1-methyl-1,7,9,10,11,12-hexahydro-13H-[1,5]oxazolo[7,8-g]pyrazolo[4,3-c]quinolin-13-one] | 13.7 | 30 |  |  | 0.9 | 27 |  |  | 
Nc1nc2cc3c(cc2c2c1COC2)C(=O)N(Cc1ccc(-c2c(F)cccc2F)cn1)CCCOC3 [Example 431, 4-Amino-12-(5-(2,6-difluorophenyl)pyridin-2-yl)methyl-3,7,9,10,11,12-hexahydrofuro[3,4-c][1,5]oxazolino[7,8-g]quinolin-13(1H)-one] | 12.3 | 61 |  |  | 3.3 | 200 |  |  | 
CC1OCc2c1c(N)nc1cc3c(cc21)C(=O)N(Cc1ccc(-c2c(F)cccc2F)cn1)CCCNC3 (stereo not drawn) [Example 435, 4-Amino-12-((5-(2,6-difluorophenyl)pyridin-2-yl)methyl)-3-methyl-1,3,7,8,9,10,11,12-octahydro-13H-[1,5]diamine[7,8-g]furo[3,4-c]quinolin-13-one] | 12.8 | 41 |  |  | 1.9 | 78 |  |  | 
Nc1nc2cc3c(cc2n2cncc12)C(=O)N(Cc1ccc(C24CC(C2)C4)cn1)CCCOC3 [Example 484, 4-Amino-12-((5-(bicyclo[1.1.1]pentan-1-yl)pyridin-2-yl)methyl)-9,10,11,12-tetrahydroimidazo[1,5-a][1,5]oxazolo[8,7-g]quinoxalin-13(7H)-one] | 11.9 | 38 | 9.9 | 379 |  |  |  |  | 
Nc1nc2cc3c(cc2c2c1COC2)C(=O)N(Cc1ccc(C24CC(C2)C4)cn1)CCCOC3 [Example 510, 4-Amino-12-((5-(bicyclo[1.1.1]pentan-1-yl)pyridin-2-yl)methyl)-3,7,9,10,11,12-hexahydrofuro[3,4-c][1,5]oxazolo[7,8-g]quinolin-13(1H)-one] | 11.3 | 66 |  |  | 12 | 771 |  |  | 
C[C@H]1CCCN(Cc2ccc(C(F)(F)F)cn2)C(=O)c2cc3c(cc2C1)nc(N)c1cncn13 [Example 514-P2, (S)-4-amino-8-methyl-12-((5-(trifluoromethyl)pyridin-2-yl)methyl)-7,8,9,10,11,12-hexahydro-13H-azo[4,3-g]imidazo[1,5-a]quinoxalin-13-one] | 11.6 | 71 |  |  | 14 | 1000 |  |  | 
(R, Z)-4-amino-12-(2-(trifluoromethyl)-5,8-dihydro-6H-pyrano[3,4-b]pyridin-5-yl)-9,10,11,12-tetrahydro-13H-aza[4,3-g]imidazo[1,5-a]quinoxalin-13-one [Example 158-P1] |  | 81 |  |  |  |  | 12.03 | 8.7 | 708
